Results taken from patent US7244727B2, “Fused bicyclic nitrogen-containing heterocycles” (Japan Tobacco Inc., priority 2002, dated 2007).

What was measured:
human DGAT1 = biological target: T1, human DGAT1 (Homo sapiens, UniProt O75907); assay: DGAT Scintillation Proximity Assay (SPA) with membranes of insect cells expressing human flagtag DGAT1; type: biochemical; settings: read-out: hDGAT1 IC50
T1 construct: made in house; host or cells: insect cells (sf9, sf21 or High Five) infected with baculovirus; total cell membranes
T1 sequence (O75907 1-488): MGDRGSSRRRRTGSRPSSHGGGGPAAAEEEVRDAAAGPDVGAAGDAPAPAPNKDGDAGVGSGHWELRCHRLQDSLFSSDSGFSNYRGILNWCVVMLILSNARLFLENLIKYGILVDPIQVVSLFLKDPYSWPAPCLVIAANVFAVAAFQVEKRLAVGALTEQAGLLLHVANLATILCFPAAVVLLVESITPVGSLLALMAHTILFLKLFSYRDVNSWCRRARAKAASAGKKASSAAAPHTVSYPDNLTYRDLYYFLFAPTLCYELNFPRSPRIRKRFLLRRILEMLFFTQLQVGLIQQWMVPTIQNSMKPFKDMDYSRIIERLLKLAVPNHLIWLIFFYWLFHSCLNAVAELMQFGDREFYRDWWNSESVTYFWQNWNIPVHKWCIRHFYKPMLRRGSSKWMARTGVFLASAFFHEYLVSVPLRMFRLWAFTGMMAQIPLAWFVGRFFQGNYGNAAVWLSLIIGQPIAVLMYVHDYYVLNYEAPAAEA
In short: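 Membranes (0.2 μg/well) from insect cells expressing human flag-tagged DGAT1 incubated with 10 μM compound and 200 μM dioleoyl glycerol substrate; mercuric chloride as inhibition control. Reaction stopped with WGA SPA beads in mercuric chloride, overnight bead coupling, then scintillation proximity signal read.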

SMILES	IC50 (human DGAT1) [µM]	melting point [°C]
CC1(C)Oc2ncnc(N)c2N=C1c1ccc([C@H]2CC[C@H](CNS(C)(=O)=O)CC2)cc1 [Example 2-58]	0.01 to 0.1	251 to 252
CC1(C)Oc2ncnc(N)c2N=C1c1ccc([C@H]2CC[C@H](Cc3cc(O)[nH]n3)CC2)cc1 [Example 2-59]	0.01 to 0.1	> 250
CC1(C)Oc2ncnc(N)c2N=C1c1ccc([C@H]2CC[C@H](Cc3cc(O)on3)CC2)cc1 [Example 2-60]	0.01 to 0.1	173 to 175
CC1(C)Oc2ncnc(N)c2N=C1c1ccc([C@H]2CC[C@H](CNC(=O)OCc3ccccc3)CC2)cc1 [Example 2-61]	0.01 to 0.1	159 to 162
CC1(C)Oc2ncnc(N)c2N=C1c1ccc([C@H]2CC[C@H](OCC(=O)O)CC2)cc1 [Example 2-62]	0.01 to 0.1	> 230
CC1(C)Oc2ncnc(N)c2N=C1c1ccc([C@H]2CC[C@H](CC3SC(=O)NC3=O)CC2)cc1 (stereo partly drawn) [Example 2-64]	0.01 to 0.1	> 230
CC(C)(NC(=O)C[C@H]1CC[C@H](c2ccc(C3=Nc4c(N)ncnc4OC3(C)C)cc2)CC1)C(=O)O [Example 2-65]	< 0.01	243 to 244
CC1(C)Oc2ncnc(N)c2N=C1c1ccc2c(c1)CCCC2 [Example 2-66]	> 0.1	176 to 177
CC1(C)Oc2ncnc(N)c2N=C1c1ccc(C2(C)CCC(CC(=O)O)CC2)cc1 (stereo not drawn) [Example 2-67]	0.01 to 0.1	> 250
CC1(C)Oc2ncnc(N)c2N=C1c1ccc2c(c1)C(CC(=O)O)CCC2 (stereo not drawn) [Example 2-68]	> 0.1	> 250
CC(C(=O)O)[C@H]1CC[C@H](c2ccc(C3=Nc4c(N)ncnc4OC3(C)C)cc2)CC1 (stereo partly drawn) [Example 2-69]	< 0.01	> 250
CC1(C)Oc2ncnc(N)c2N=C1c1ccc([C@H]2CC[C@H](CN3CC(=O)NC3=O)CC2)cc1 [Example 2-70]	0.01 to 0.1	212 to 214
CC1(C)Oc2ncnc(N)c2N=C1c1ccc2c(c1)CC(C(=O)O)C2 (stereo not drawn) [Example 2-71]	> 0.1	> 250
CC1(C)Oc2ncnc(N)c2N=C1c1ccc2c(c1)CC(CC(=O)O)C2 (stereo not drawn) [Example 2-72]	0.01 to 0.1	> 250
CC(C)(NC(=O)C[C@H]1CC[C@H](c2ccc(C3Nc4c(N)ncnc4OC3(C)C)cc2)CC1)C(=O)O (stereo partly drawn) [Example 2-73]	0.01 to 0.1	> 250
CC1(C)Oc2ncnc(N)c2NC1(C)c1ccc(C2CCCCC2)cc1 (stereo not drawn) [Example 2-75]	> 0.1	244 to 245
CC1(C)Oc2ncnc(N)c2NC1c1ccc([C@H]2CC[C@H](Cc3nn[nH]n3)CC2)cc1 (stereo partly drawn) [Example 2-76]	0.01 to 0.1	> 250
CC1(C)Oc2ncnc(N)c2N=C1c1ccc([C@H]2CC[C@H](CC(=O)N3CCC(O)CC3)CC2)cc1 [Example 2-77]	0.01 to 0.1	137 to 139
CC(C)(O)C[C@H]1CC[C@H](c2ccc(C3=Nc4c(N)ncnc4OC3(C)C)cc2)CC1 [Example 2-78]	0.01 to 0.1	185 to 187
CC1(C)Oc2ncnc(N)c2N=C1c1ccc([C@H]2CC[C@H](CCO)CC2)cc1 [Example 2-79]	0.01 to 0.1	207 to 208
CC1(C)Oc2ncnc(N)c2N=C1c1ccc([C@H]2CC[C@H](CC(O)C(F)(F)F)CC2)cc1 (stereo partly drawn) [Example 2-80]	0.01 to 0.1	271 to 272
CC1(C)Oc2ncnc(N)c2N=C1c1ccc([C@H]2CC[C@H](CCN3CCCCC3)CC2)cc1 [Example 2-82]	> 0.1	209 to 210
CC1(C)Oc2ncnc(N)c2N=C1c1ccc([C@H]2CC[C@H](CCN3CCCC3)CC2)cc1 [Example 2-83]	> 0.1	142 to 143
CC1(C)Oc2ncnc(N)c2N=C1c1ccc([C@H]2CC[C@H](CCN3CCC(O)CC3)CC2)cc1 [Example 2-84]	> 0.1	217 to 218
CC1(C)Oc2ncnc(N)c2N=C1c1ccc([C@H]2CC[C@H](CCN3CCC(O)(c4ccccc4)CC3)CC2)cc1 [Example 2-85]	> 0.1	115 to 116
CC1(C)Oc2ncnc(N)c2N=C1c1ccc([C@H]2CC[C@H](CCN3CCC(Cc4ccccc4)CC3)CC2)cc1 [Example 2-86]	> 0.1	190 to 191

SMILES	IC50 (human DGAT1) [µM]	melting point [°C]
CC1(C)Oc2ncnc(N)c2N=C1c1ccc([C@H]2CC[C@H](CCN3CCC(CCO)CC3)CC2)cc1 [Example 2-87]	> 0.1	221 to 222
CC1(C)Oc2ncnc(N)c2N=C1c1ccc([C@H]2CC[C@H](CCN3CCN(Cc4ccccc4)CC3)CC2)cc1 [Example 2-88]	> 0.1	175 to 176
CN1CCN(C(=O)C[C@H]2CC[C@H](c3ccc(C4=Nc5c(N)ncnc5OC4(C)C)cc3)CC2)CC1 [Example 2-92]	0.01 to 0.1	113 to 115
CC1(C)Oc2ncnc(N)c2N=C1c1ccc([C@H]2CC[C@H](CC(=O)N3CCCCC3)CC2)cc1 [Example 2-93]	0.01 to 0.1	146 to 147
CC1(C)Oc2ncnc(N)c2N=C1c1ccc([C@H]2CC[C@H](CC(=O)N3CCCC3)CC2)cc1 [Example 2-94]	0.01 to 0.1	232 to 233
CC1(C)Oc2ncnc(N)c2N=C1c1ccc([C@H]2CC[C@H](CC(=O)N3CCOCC3)CC2)cc1 [Example 2-95]	0.01 to 0.1	199 to 200
CC1(C)Oc2ncnc(N)c2N=C1c1ccc([C@H]2CC[C@H](CC(=O)N3CCC(CCO)CC3)CC2)cc1 [Example 2-96]	0.01 to 0.1	112 to 113
CC1(C)Oc2ncnc(N)c2N=C1c1ccc([C@H]2CC[C@H](CC(=O)N3CCN(CCO)CC3)CC2)cc1 [Example 2-97]	0.01 to 0.1	225 to 226
CC(C)(CO)NC(=O)C[C@H]1CC[C@H](c2ccc(C3=Nc4c(N)ncnc4OC3(C)C)cc2)CC1 [Example 2-98]	0.01 to 0.1	131 to 133
CN(CCO)C(=O)C[C@H]1CC[C@H](c2ccc(C3=Nc4c(N)ncnc4OC3(C)C)cc2)CC1 [Example 2-99]	0.01 to 0.1	113 to 115
CC1(C)Oc2ncnc(N)c2N=C1c1ccc([C@H]2CC[C@H](CC(=O)N3CCC[C@H]3CO)CC2)cc1 [Example 2-100]	0.01 to 0.1	184 to 185
CC1(C)Oc2ncnc(N)c2N=C1c1ccc([C@H]2CC[C@H](CC(=O)N3CCC(O)C3)CC2)cc1 (stereo partly drawn) [Example 2-101]	0.01 to 0.1	237 to 239
CCCNC(=O)C[C@H]1CC[C@H](c2ccc(C3=Nc4c(N)ncnc4OC3(C)C)cc2)CC1 [Example 2-102]	0.01 to 0.1	214 to 215
CC1(C)Oc2ncnc(N)c2N=C1c1ccc([C@H]2CC[C@H](CC(=O)N3CC[C@@H](O)C3)CC2)cc1 [Example 2-103]	0.01 to 0.1	231 to 232
CN(CC[C@H]1CC[C@H](c2ccc(C3=Nc4c(N)ncnc4OC3(C)C)cc2)CC1)C(=O)CO [Example 2-104]	0.01 to 0.1	186 to 188
CN(C(=O)CO)[C@H]1CC[C@H](c2ccc(C3=Nc4c(N)ncnc4OC3(C)C)cc2)CC1 [Example 2-105]	0.01 to 0.1	> 250
CC1(C)Oc2ncnc(N)c2N=C1c1ccc([C@H]2CC[C@H](CC(=O)N3C[C@@H](O)[C@@H](O)C3)CC2)cc1 [Example 2-106]	0.01 to 0.1	250 to 252
CC1(C)Oc2ncnc(N)c2N=C1c1ccc([C@H]2CC[C@H](Cn3ccnc3)CC2)cc1 [Example 2-108]	0.01 to 0.1	202 to 203
CC1(C)Oc2ncnc(N)c2N=C1c1ccc([C@H]2CC[C@H](Cc3nc4ccccc4[nH]3)CC2)cc1 [Example 2-109]	0.01 to 0.1	> 230
CC1(C)Oc2ncnc(N)c2N=C1c1ccc([C@H]2CC[C@H](CC(=O)CO)CC2)cc1 [Example 2-110]	0.01 to 0.1	155 to 156
CC1(C)Oc2ncnc(N)c2N=C1c1ccc([C@H]2CC[C@H](CC(=O)N3CCNCC3)CC2)cc1.Cl.Cl [Example 2-111]	0.01 to 0.1	> 250
CC1(C)Oc2ncnc(N)c2N=C1c1ccc([C@H]2CC[C@H](SCC(=O)O)CC2)cc1 [Example 2-112]	0.01 to 0.1	> 250
Cc1ncc(C[C@H]2CC[C@H](c3ccc(C4=Nc5c(N)ncnc5OC4(C)C)cc3)CC2)[nH]1 [Example 2-113]	0.01 to 0.1	172 to 173
CC(C)NC[C@H]1CC[C@H](c2ccc(C3=Nc4c(N)ncnc4OC3(C)C)cc2)CC1 [Example 2-114]	0.01 to 0.1	250
CCOC(=O)N1CCC(NC[C@H]2CC[C@H](c3ccc(C4=Nc5c(N)ncnc5OC4(C)C)cc3)CC2)CC1 [Example 2-115]	> 0.1	127 to 135
